According to patent US4138554A, “7-[D-α-(4-Hydroxy-1,5-naphthyridine-3-carboxamido)-α-phenyl (and p-hydroxyphenyl)acetamido]-3-carbamoyloxymethyl-3-cephem-4-carboxylic acids” (priority 1977, dated 1979):
Read-outs that look alike come from different tables or passages of the source.

Legend:
[1] = test system: Pseudomonas aeruginosa; experiment: MIC by agar dilution against 61 strains of Pseudomonas aeruginosa, secondary evaluation; format: cell-based; conditions: Pseudomonas aeruginosa
Method in brief: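 Agar dilution MICs were determined on Mueller-Hinton medium with two-fold compound steps and Steers' multipoint inoculation, across 31 primary-screen organisms and 61 P. aeruginosa strains.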

[2] = test system: Pseudomonas sp.; experiment: MIC by serial two-fold agar dilution (Mueller-Hinton agar), Pseudomonas sp.; format: cell-based; conditions: Pseudomonas sp. A20358, Table 6
Method: Minimum inhibitory concentrations (MIC) of cephalosporins in the present study were determined by serial two-fold agar dilution method using Steers' apparatus on Mueller-Hinton agar plate against 31 test organisms for the primary screening and also against 61 strains of Pseudomonas aeruginosa for the secondary evaluation.

[3] = Mouse blood levels after subcutaneous injection; format: in vivo; conditions: blood, sc, subcutaneous, read-out: Blood Levels
Source text: |Mouse Blood Levels | Blood Levels in Mcg./Ml. at | Indicated Hours After Subcu- |Dose in taneous Injection

CC1(C)S[C@@H]2[C@H](NC(=O)C(c3ccccc3)S(=O)(=O)O)C(=O)N2[C@H]1C(=O)O (stereo partly drawn) [Sulbenicillin, sulbenicillin]
1.6 µg/mL: MIC ([1]; BBRI Pa-No. 36, Table 2, read-out: MIC)
> 100 µg/mL: MIC ([1]; BBRI Pa-No. 42, Table 2, read-out: MIC) | MIC ([1]; BBRI Pa-No. 42, Table 7, read-out: MIC) | MIC ([1]; BBRI Pa-No. 62, Table 2, read-out: MIC) | MIC ([1]; BBRI Pa-No. 62, Table 7, read-out: MIC)
3.1 µg/mL: MIC [2]
14000 ng/mL: concentration at 0.5 h ([3]; 40 mg/kg, 40 Mgm./Kg.)
50 µg/mL: MIC ([1]; BBRI Pa-No. 35, Table 7, read-out: MIC) | MIC ([1]; BBRI Pa-No. 37, Table 2, read-out: MIC) | MIC ([1]; BBRI Pa-No. 38, Table 2, read-out: MIC) | MIC ([1]; BBRI Pa-No. 43, Table 2, read-out: MIC) | MIC ([1]; BBRI Pa-No. 44 (unnamed strain), Table 7, read-out: MIC) | MIC ([1]; BBRI Pa-No. 44, Table 2, read-out: MIC) | MIC ([1]; BBRI Pa-No. 52, Table 7, read-out: MIC) | MIC ([1]; BBRI Pa-No. 54, Table 2, read-out: MIC) | MIC ([1]; BBRI Pa-No. 58, Table 2, read-out: MIC) | MIC ([1]; BBRI Pa-No. 58, Table 7, read-out: MIC) | MIC ([1]; BBRI Pa-No. 59, Table 2, read-out: MIC) | MIC ([1]; BBRI Pa-No. 61, Table 2, read-out: MIC) | MIC ([1]; BBRI Pa-No. 67, Table 2, read-out: MIC) | MIC ([1]; BBRI Pa-No. 68, Table 2, read-out: MIC) | MIC ([1]; BBRI Pa-No. 68, Table 7, read-out: MIC) | MIC ([1]; BBRI Pa-No. 69, Table 2, read-out: MIC) | MIC ([1]; BBRI Pa-No. 70, K-Ps102(CR-102), Table 7, read-out: MIC) | MIC ([1]; GN315, BBRI Pa-No. 27, GN315, Table 2, read-out: MIC) | MIC ([1]; GN4925, BBRI Pa-No. 44, GN4925, Table 7, read-out: MIC) | MIC ([1]; GN4925, BBRI Pa-No. 45, GN4925, Table 2, read-out: MIC)
22000 ng/mL: concentration at 0.25 h ([3]; 40 mg/kg, 40 Mgm./Kg.)
7500 ng/mL: concentration at 0.5 h ([3]; 20 mg/kg, 20 Mgm./Kg.)
25 µg/mL: MIC ([1]; BBRI Pa-No. 37, Table 7, read-out: MIC) | MIC ([1]; BBRI Pa-No. 39, Table 2, read-out: MIC) | MIC ([1]; BBRI Pa-No. 39, Table 7, read-out: MIC) | MIC ([1]; BBRI Pa-No. 41, Table 2, read-out: MIC) | MIC ([1]; BBRI Pa-No. 41, Table 7, read-out: MIC) | MIC ([1]; BBRI Pa-No. 43, Table 7, read-out: MIC) | MIC ([1]; BBRI Pa-No. 51, Table 2, read-out: MIC) | MIC ([1]; BBRI Pa-No. 51, Table 7, read-out: MIC) | MIC ([1]; BBRI Pa-No. 52, Table 2, read-out: MIC) | MIC ([1]; BBRI Pa-No. 53, Table 2, read-out: MIC) | MIC ([1]; BBRI Pa-No. 53, Table 7, read-out: MIC) | MIC ([1]; BBRI Pa-No. 54, Table 7, read-out: MIC) | MIC ([1]; BBRI Pa-No. 55, Table 2, read-out: MIC) | MIC ([1]; BBRI Pa-No. 55, Table 7, read-out: MIC) | MIC ([1]; BBRI Pa-No. 56, Table 2, read-out: MIC) | MIC ([1]; BBRI Pa-No. 56, Table 7, read-out: MIC) | MIC ([1]; BBRI Pa-No. 57, Table 2, read-out: MIC) | MIC ([1]; BBRI Pa-No. 57, Table 7, read-out: MIC) | MIC ([1]; BBRI Pa-No. 59, Table 7, read-out: MIC) | MIC ([1]; BBRI Pa-No. 61, Table 7, read-out: MIC) | MIC ([1]; BBRI Pa-No. 64, Table 2, read-out: MIC) | MIC ([1]; BBRI Pa-No. 64, Table 7, read-out: MIC) | MIC ([1]; BBRI Pa-No. 65, Table 2, read-out: MIC) | MIC ([1]; BBRI Pa-No. 65, Table 7, read-out: MIC) | MIC ([1]; BBRI Pa-No. 66, Table 2, read-out: MIC) | MIC ([1]; BBRI Pa-No. 66, Table 7, read-out: MIC) | MIC ([1]; BBRI Pa-No. 67, Table 7, read-out: MIC) | MIC ([1]; BBRI Pa-No. 70, K-Ps102 (CR-102), Table 2, read-out: MIC)
100 µg/mL: MIC ([1]; BBRI Pa-No. 35, Table 2, read-out: MIC) | MIC ([1]; BBRI Pa-No. 38, Table 7, read-out: MIC) | MIC ([1]; BBRI Pa-No. 69, Table 7, read-out: MIC)
< 1000 ng/mL: concentration at 2 h ([3]; 40 mg/kg, 40 Mgm./Kg., 2.0 hours)
12.5 µg/mL: MIC ([1]; GN315)
1200 ng/mL: concentration at 1 h ([3]; 20 mg/kg, 20 Mgm./Kg.)
0.8 µg/mL: MIC ([1]; BBRI Pa-No. 36, Table 7, read-out: MIC)
5000 ng/mL: concentration at 1 h ([3]; 40 mg/kg, 40 Mgm./Kg.)
9800 ng/mL: concentration at 0.25 h ([3]; 20 mg/kg, 20 Mgm./Kg.)
